Tests used:
[1] = test system: HDM driven allergic airway inflammation; assay: House dust mite (HDM) allergic airway inflammation model, treatment strategy 1 (allergy induction); format: in vivo, C57bl/6 mice
Method: (§1) To induce airway inflammation, mice were anaesthetized with isofluorane and treated intratracheally (i.t.) with 1-10 μg house dust mite (HDM; Greer Laboratories) allergen extract in 80 μL phosphate buffered saline (PBS) on day 0 or using PBS only. Ten days later, anesthetized mice were challenged with 1-10 μg HDM in 50 μL PBS intranasally (i.n.) for 5 consecutive days. Mice were sacrificed 24 hr after last challenge and broncho alveolar lavage was performed by flushing the lungs 3 times with 1 ml PBS containing Ethylenediaminetetraacetic acid (EDTA, Sigma-Aldrich).
Different treatment modalities were testes i.e. route and dose. Here we tested the oral versus intratracheal route (FIG. 1) and PBS versus enoximone in a HDM driven allergy model. Enoximone was precipitated from Perfan®. The precipitant was admitted with HDM solution and used as a suspension for intratracheal treatment doses 25 μg and 250 μg or it was used as a suspension admitted in PBS for oral treatment doses 250 μg or 2.5 mg. Mice underwent enoximone treatment only during challenge. Sensitization was performed with 1 μg HDM and challenge with 2.5-5 μg HDM. Twenty-four hours after the last challenge measurements were performed.
Optimal dose of 25 μg enoximone versus diluent (FIG. 5) was admitted with 5 μg HDM solution and used for intratracheal treatment or diluent (10% ethanol+40% glycerol+50% MQ) admitted with 5 μg HDM solution. Controls were treated with enoximone 25 μg admitted with PBS or diluent admitted with PBS. Mice underwent enoximone treatment only during challenge.
(A) Experimental HDM asthma design showing intratracheal sensitization (s) of 1 μg HDM or PBS as control and five intra-nasal challenges (c) with 2.5-5 μg HDM. (B) Quantification of flow cytometric analyses of the indicated populations of eosinophils in bronchoalveolar lavage (BAL) of PBS treated mice (black bars) and enoximone treated mice (white and greyscale bars). Results are expressed as means±SEM. (C) Quantification of flow cytometric analyses of ILC2 numbers in BAL. Results are expressed as means±SEM. Results represent data of one out of 2 experiments with 3-8 animals per group. Statistical evaluations were performed only between different treatments of groups. *p<0.05, **p<0.01).
(A) Experimental HDM asthma design showing intratracheal sensitization (s) of 1 μg HDM or PBS as control and intra nasal challenge (c) with 5 μg HDM. (B) Quantification of flow cytometric analyses of eosinophils in BAL of PBS treated mice (black bars) and enoximone treated mice (light grey bars). Results are expressed as means±SEM. (C) Quantification of flow cytometric analyses of neutrophils and (D) ILC2s in BAL. Results are expressed as means±SEM. n=4-8 animals per group. Statistical evaluations were performed only between different treatments of groups (*p<0.05 or **p<0.01).

[2] = test system: HDM allergic airway inflammation; assay: HDM asthma model, lower enoximone treatment frequency; format: in vivo, mice
Method: as §1
Next we investigate if it is possible to lower the active enoximone treatment frequency when given it admixed to the HDM challenge solution (FIG. 2A). We compare the daily treatment frequency with once in two days (each other day) and once in three days. Mice treated with HDM admixed with diluent show clear eosinophilic airway inflammation (FIG. 2B). […] Moreover along this line also numbers of T-cells drop when treated with enoximone (FIG. 2B). […] Moreover the proportion of IL-4 producing T-cells is lower when enoximone is given less frequently than daily (FIG. 3).
(A) Experimental HDM asthma design showing intratracheal sensitisation (s) of 10 μg HDM or PBS as control and challenge (c) with 10 μg HDM intra nasal. The following schedules were used diluent (d) (5 μl) during challenge (for 5 days ddddd), enoximone (5 μl 5 mg/ml) during challenge (for 5 days eeeee), enoximone once in two days (edede) or (deded) and once in three days enoximone (edded). (B) Total cells and quantification of flow cytometric analyses of eosinophils and CD4 T-cells in BAL of PBS treated (black bars) and several frequencies of enoximone treated mice (gray bars). Results are expressed as means±SEM.
FIG. 3 Quantification of flow cytometric analyses of cytokine producing CD4 T-cells and proportion of IL-4 positive CD4 T-cells in BAL. Results are expressed as means±SEM. n=3-8 animals per group. Statistical evaluations were performed only between different treatments of groups (*p<0.05).

[3] = oral or intratracheal enoximone

With `CSc1ccc(C(=O)c2[nH]c(=O)[nH]c2C)cc1` [enoximone, 1,3-dihydro-4-methyl-5-[4-(methylthio)benzoyl]-2H-imidazol-2-on] the “neutrophil numbers in BAL” value ([1]; 25 μg enoximone intratracheally, FIG. 6C, same pattern as eosinophils) was “the same dynamic is observed”, the “ILC2 cell numbers in BAL” value ([1]; 25 μg enoximone intratracheally, FIG. 6D, same pattern as eosinophils) was “the same dynamic is observed” and the “numbers of BAL eosinophils, HDM/diluent treated mice compared to enoximone treated mice” value ([1]; 25 μg enoximone solution admitted to 5 μg HDM, intratracheally, FIG. 6B) was “significantly higher”. The “allergic airway inflammation in control mice” value ([1]; PBS/enoximone (25 μg) control mice, no HDM) was “no signs of allergic airway inflammation”, the “eosinophilic airway inflammation in control mice” value ([1]; PBS/enoximone control mice, no HDM) was “no eosinophilic airway inflammation” and the “eosinophil numbers in BAL, HDM/PBS treated mice compared to enoximone treated mice” value ([1]; intratracheally (25 and 250 μg), treatment during challenge, FIG. 5B) was “significantly higher”. For the same compound, the “DCs, PBS treated allergy mice compared to enoximone treated mice” value [1, 3] was “significantly higher in the PBS treated allergy mice”, the “Neutrophils, PBS treated allergy mice compared to enoximone treated mice” value [1, 3] was “significantly higher in the PBS treated allergy mice” and the “T-cells, PBS treated allergy mice compared to enoximone treated mice” value [1, 3] was “significantly higher in the PBS treated allergy mice”. The “ILC2 numbers in BAL” value ([1]; oral or intratracheal enoximone, FIG. 5C) was “reduced”, the “numbers of T-cells in BAL” value ([2]; 25 μg enoximone admixed with HDM challenge, FIG. 2B) was “drop” and the “number of cytokine (IL-4, IL-5, IL-13, IL-17 and IFNγ) producing T-cells in BAL” value ([2]; 25 μg enoximone admixed with HDM challenge, FIG. 3) was “drop in number”. For the same compound, the eosinophilic inflammation ([2]; 25 μg enoximone admixed with HDM challenge, given every day, FIG. 2B) was “clear reduction”, the eosinophilic inflammation ([2]; 25 μg enoximone admixed with HDM challenge, once in three days, FIG. 2B) was “clear reduction” and the eosinophilic inflammation ([2]; 25 μg enoximone admixed with HDM challenge, once in two days (each other day), FIG. 2B) was “clear reduction”. The “proportion of IL-4 producing T-cells” value ([2]; enoximone given less frequently than daily, FIG. 3) was “lower”.

— patent US10071077B2, “Use of enoximone in the treatment of atopic immune-related disorders, in pharmaceutical composition as well as in pharmaceutical preparation” (BREAKTHROUGH MEDICAL RESEARCH B.V., priority 2014, dated 2018)
